Measured values published in article PMC9652212 (Clinical Pharmacokinetics, 2022).
Like-named read-outs stand apart in the source and are kept apart here.

What was measured:
[1] = format: in vivo, human
[2] = cited from earlier work
CYP3A = conditions: cited from earlier work
[3] = tested on: pooled human liver microsomes; conditions: MDZ and efavirenz; cited from earlier work
hepatic CYP3A activity = conditions: time after (first) perpetrator drug administration
[4] = calculated from model parameters
[5] = metabolite in the absence of parent compound, ref Hotz et al. 27
[6] = ref Wiebe et al. 23, Tomalik-Scharte et al. 25
[7] = oral and i.v. bolus administration

## OCc1ncc2n1-c1ccc(Cl)cc1C(c1ccccc1F)=NC2 [1’-OH-MDZ, 1’-hydroxymidazolam]
[1]; [4]
  Elimination rate constant of 1’-OH-MDZ: 0.880 h⁻¹
  Formation rate constant of 1’-OH-MDZ: 0.712 h⁻¹
[1]; interindividual variability
  IIV of 1’-OH-MDZ CL: 42.0 %CV
[1]; population estimate after metabolic conversion of MDZ
  1’-OH-MDZ CL: 264 L/h
[2]; [5]
  1’-OH-MDZ CL, reported: 34.4 to 56.7 L/h
  1’-OH-MDZ V, reported: 49.7 to 79.8 L
[2]; [6]
  1’-OH-MDZ CL, reported: 186 to 208 L/h
  1’-OH-MDZ V, reported: 256 to 876 L

## O=C1Nc2ccc(Cl)cc2[C@@](C#CC2CC2)(C(F)(F)F)O1 [efavirenz]
CYP3A; 12 h after efavirenz administration, ref Mikus et al. 32
  Increase in MDZ CL: 27%
[3]
  Increase in metabolite formation rates: ~ 1.5 fold
Hepatic CYP3A activity
  Time of maximum CYP3A modulatory effect: 2 to 4 h

## Cc1ncc2n1-c1ccc(Cl)cc1C(c1ccccc1F)=NC2 [midazolam]
[1]; human, plasma, intravenous
  Vd: 56.7 L
  clearance: 732 mL/min
[1]; interindividual variability
  IIV of MDZ CL: 21.9 %CV
  IIV of MDZ volume of distribution: 29.9 %CV
[2]; [7]
  MDZ CL, reported: 15.2 to 45.0 L/h
  MDZ V, reported: 33.3 to 180 L/h

## C[C@@H](c1ncncc1F)[C@](O)(Cn1cncn1)c1ccc(F)cc1F [voriconazole]
CYP3A; within 12 h after oral voriconazole, semi-physiological model
  Decrease in hepatic CYP3A activity: 75%
[2]
  Oral bioavailability: > 90%
